Experimental data reported in patent US7045152B2, “Treating pulmonary disorders with gaseous agent causing repletion of GSNO” (Duke University, priority 1999, dated 2006).

Columns and labels:
Type in all cases: in vivo, human
[1] = system: cystic fibrosis; assay: Inhaled gas / nebulized treatment of patients with cystic fibrosis (Examples IV, IX, XI, XII)
[2] = system: ARDS; assay: Inhaled gas treatment of patients with ARDS (Examples II, VI, VII, VIII)
[3] = system: asthma; assay: Inhaled gas treatment of patients with asthma (Examples III, X); settings: Example III; child, status asthmaticus, intubated; 20 ppm in nitrogen

[Na+].[Na+].[O-][N+]([O-])=NO [Angeli's salt, reference compound] was tested, and the sputum production ([1]; Example XI, 100 mM in 3 cc normal saline nebulized Q 6 hours, over two days, after HNO) was “decreases in sputum production”.

CCON=O [Ethylnitrite] was tested, and the PaO2 ([2]; Example VII, ENO in nitrogen started again (arrow D), from 43) was 49 mm Hg, the PaO2 ([2]; Example VII, ENO stopped (arrow C), from 46) was 43 mm Hg and the blood pressure ([2]; Example VII, hemodynamically unstable patient, ENO 40 ppm in nitrogen) was “stabilized”. For the same compound, the PaO2 ([2]; Example VII, over the following 12 hours on ENO, progressively less responsive) was 37 millimeters of mercury, the PaO2 ([2]; Example VII, person, viral pneumonia progressed to ARDS, initial ENO 40 ppm in nitrogen (arrow A), from 39 on 100% oxygen) was 48 mm Hg and the PaO2 ([2]; Example VIII, person, ARDS, inhaled 10 ppm in nitrogen for three days, from 50) was 40 mm Hg. The “GSNO levels in the airway lining fluid” value ([1]; human, in vivo) was “increase”, the blood gases ([1]; human, in vivo) was “improved” and the pulmonary hemorrhage ([1]; human, in vivo) was “the hemorrhage stops”. The state of health ([1]; human, in vivo) was “reverts to their normal state of health”.

In the case of CSN=O [Methylthionitrite], the PaO2 ([2]; Example VI, person, AML, ARDS, intubated, 20 parts per million oxygen, from PO2 40 on 100% oxygen) is reported as 70 mm Hg.

With CC(=O)N[C@@H](CS)C(=O)O [N-acetylcysteine, reference compound] the PaO2 ([2]; Example VII, nebulized N-acetylcysteine added to ENO (arrow B), from 37) was 46 mm Hg.

For COS(=O)N=O (centres unmarked) [methylnitrososulfinate], the airway pressures [3] was “airway pressures decrease”.
